Numbering of substitutions follows the chain as printed.
What was measured:
rM1 = biological target: T1, rM1 (Rattus norvegicus, UniProt P08482); assay: Calcium mobilization assay in CHO-K1 cells stably expressing rat M1 (low throughput, Flexstation II); assay type: cell-based
T1 construct: host or cells: CHO-K1
T1 sequence (P08482 1-460): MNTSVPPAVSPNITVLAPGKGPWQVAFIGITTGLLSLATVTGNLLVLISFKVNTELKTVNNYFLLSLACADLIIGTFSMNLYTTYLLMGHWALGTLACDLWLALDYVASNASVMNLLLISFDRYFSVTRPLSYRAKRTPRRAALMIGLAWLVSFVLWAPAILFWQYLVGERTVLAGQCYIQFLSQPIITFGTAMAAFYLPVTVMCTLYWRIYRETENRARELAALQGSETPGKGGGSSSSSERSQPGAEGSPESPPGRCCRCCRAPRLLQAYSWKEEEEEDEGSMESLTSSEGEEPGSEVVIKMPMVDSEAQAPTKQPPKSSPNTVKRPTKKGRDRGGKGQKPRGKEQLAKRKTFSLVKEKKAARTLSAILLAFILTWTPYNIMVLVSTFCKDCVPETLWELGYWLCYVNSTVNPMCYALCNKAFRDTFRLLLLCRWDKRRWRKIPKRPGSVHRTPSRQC
Description: (§1) Chinese hamster ovary (CHO-K1) cells stably expressing rat (r) M1 were purchased from the American Type Culture Collection and cultured according to their indicated protocol. CHO cells stably expressing human (h)M2, hM3, and hM5 were described previously (Levey et al., 1991); hM1 and hM4 cDNAs were purchased from Missouri S&T cDNA Resource; rM4 cDNA was provided by T. I. Bonner (National Institutes of Health, Bethesda, Md.). hM1, hM4, and rM4 cDNAs were used to stably transfect CHO-K1 cells purchased from the American Type Culture Collection using Lipofectamine2000. To make stable hM2, hM4 and rM4 cell lines for use in calcium mobilization assays, these cells also were stably transfected with a chimeric G-protein (Gqi5) (provided by B. R. Conklin, University of California, San Francisco) using Lipofectamine 2000. rM1, hM3, and hM5 cells were grown in Ham's F-12 medium containing 10% heat-inactivated fetal bovine serum (FBS), 20 mM HEPES, and 50 μg/mL G418 sulfate. hM2-Gqi5 and hM4-Gqi5 cells were grown in the same medium also containing 500 μg/mL Hygromycin B. Stable rM4-Gqi5 cells were grown in DMEM containing 10% heat-inactivated FBS, 20 mM HEPES, 400 μg/mL G418 sulfate, and 500 μg/mL Hygromycin B. The rat M1 Y381A orthosteric mutant receptor cDNA was generated using the Quik-Change site-directed mutagenesis kit (Stratagene) and verified by sequencing. CHO-K1 cells were stably transfected with this cDNA using Lipofectamine2000 and screened for expression based on calcium mobilization in response to the allosteric M1 agonist N-desmethylclozapine.
For low throughput measurement of agonist-evoked increases in intracellular calcium, CHO-K1 cells stably expressing muscarinic receptors were plated in 100 μL of growth medium at 5×10^4 (rM1, hM3, and hM5) or 6×10^4 cells per well (rM1 Y381A, hM2, and rM4) in Costar 96-well black-walled, tissue culture (TC)-treated, clear-bottom plates (Fisher). Cells were incubated overnight at 37° C. and 5% CO2. The next day, medium was removed from the cells, and they were incubated with 50 μL of 2 μM Fluo-4/acetoxymethyl ester (Invitrogen, Carlsbad, Calif.) prepared as a 2.3 mM stock in DMSO and mixed in a 1:1 ratio with 10% (w/v) Pluronic F-127 and diluted in assay buffer [HBSS (Invitrogen) supplemented with 20 mM HEPES and 2.5 mM probenecid, pH 7.4] for 1 h at 37° C. and 5% CO2. Dye was removed and replaced with 50 μL of assay buffer. For calcium fluorescence measurements, CRCs of compounds (50 μl, 2×) were added 19 s after the beginning of data collection via a Flexstation II (Molecular Devices, Sunnyvale, Calif.). Fluorescence imaging continued for a total of 130 s acquisition time using an excitation wavelength of 488 nm, an emission wavelength of 525 nm, and a cutoff wavelength of 515 nm. All of the peaks of the calcium response were normalized to the response to a maximally effective concentration of ACh (ECmax). These normalized peak calcium response values were fit using GraphPad Prism version 4.0 to a four-parameter logistic equation to determine EC50 values.

hM1 = biological target: T2, hM1 (Homo sapiens, UniProt P11229); assay: Calcium mobilization assay in CHO-K1 cells stably expressing human M1 (high throughput, FDSS 6000); assay type: cell-based
T2 construct: host or cells: CHO-K1
T2 sequence (P11229 1-460): T1 sequence (P08482 1-460) with V5A, S254T, S309P, K320R, G337A, V413I
Description: as §1
For high throughput measurement of agonist-evoked increases in intracellular calcium, CHO-K1 cells stably expressing muscarinic receptors were plated in growth medium lacking G418 and hygromycin at 15,000 cells/20 μL/well (hM1, hM2-Gqi5, hM3, hM4-Gqi5, and hM5) in Greiner 384-well black-walled, tissue culture (TC)-treated, clear-bottom plates (VWR). Cells were incubated overnight at 37° C. and 5% CO2. The next day, cells were washed using an ELX 405 (BioTek) with three washes (50 μL) of assay buffer then aspirated to 15 μL. Next, 5 μL of 8 μM Fluo-4/acetoxymethyl ester (Invitrogen, Carlsbad, Calif.) prepared as a 2.3 mM stock in DMSO and mixed in a 1:1 ratio with 10% (w/v) Pluronic F-127 and diluted in assay buffer was added to the wells and the cell plates were incubated for 45 min at 37° C. and 5% CO2. Dye was removed by washing with the ELX 405 (three 50 μL washes of assay buffer) then aspirated to 20 μL. Agonist and compound master plates were formatted in an 11 point CRC format (1:3 dilutions) in 100% DMSO with a starting concentration of 10 mM using the BRAVO liquid handler (Agilent). Test compound CRCs were then transferred to daughter plates ([…]) using the Echo acoustic plate reformatter (Labcyte, Sunnyvale, Calif.) and then diluted into assay buffer (40 μL) to a 2× stock using a Thermo Fisher Combi (Thermo Fisher Scientific, Waltham, Mass.). Calcium flux was measured using the Functional Drug Screening System (FDSS) 6000 (Hamamatsu Corporation, Tokyo, Japan) as an increase in the fluorescent static ratio. 20 μL of Agonist Compounds were applied to cells using the automated system of the FDSS 6000 at 4 s into the 300 s protocol and the data were collected at 1 Hz. Concentration-response curves were generated using a four-parameter logistical equation in XLfit curve fitting software (IDBS, Bridgewater, N.J.) for Excel (Microsoft, Redmond, Wash.) or Prism (GraphPad Software, Inc., San Diego, Calif.).

CCOC(=O)N1C2CCC1CC(N1CCC[C@@H](NC(=O)c3ccccc3Cl)C1)C2 (stereo partly drawn) [Example 7, ethyl 3-((R)-3-(2-chlorobenzamido)piperidin-1-yl)-8-azabicyclo[3.2.1]octane-8-carboxylate]
EC50 (rM1): 39 nM | Emax (rM1; RM1, read-out: Efficacy (% Max ACh)): 94% | EC50 (hM1): 570 nM | Emax (hM1; HM1, read-out: Efficacy (% Max ACh)): 61%

— patent US20130197027A1, “HETEROCYCLYL-AZABICYCLO[3.2.1]OCTANE ANALOGS AS SELECTIVE M1 AGONISTS AND METHODS OF MAKING AND USING SAME” (priority 2010, published 2013)
